Results as given in US20230099031A1, “BIFUNCTIONAL AGENTS FOR PROTEIN RECRUITMENT AND/OR DEGRADATION” (Orionis Biosciences, Inc., priority 2019, published 2023).
Structures can show the parent of a compound that is named as a salt. Where two headings read alike, the source gives them in different places.

Molecular target: T1, CRBN (Homo sapiens, UniProt Q96SW2)
T1 construct: expressed in transfected cells; host or cells: HEK293T
Assay: Competition Assay: MAPPIT-like, competition with trimethoprim-lenalidomide hybrid ligand for binding to CRBN in HEK293T cells
Type: cell-based
From the text: A bait protein (protein A) is expressed as a fusion protein in which it is genetically fused to an engineered intracellular receptor domain of the leptin receptor, which is itself fused to the extracellular domain of the erythropoietin (Epo) receptor. Binding of Epo ligand to the EpoR component results in activation of receptor-associated intracellular JAK2. However, activated JAK2 cannot activate the leptin receptor to trigger STAT3 binding and its phosphorylation because its tyrosine residues, normally phosphorylated by activated JAK2, have been mutated. Reconstitution of a JAK2 phosphorylatable STAT3 docking site is instead created through interaction of a protein B with protein A, whereby protein B is fused to a cytoplasmic domain of the gp130 receptor (which now harbors appropriate tyrosine resides recognized by the activated JAK2 kinase). Thus, physical interaction of protein A with protein B reconstitutes and Epo triggers JAK2-STAT3 signaling pathway activation. Activation of STAT3 can be monitored by introduction of a STAT3-responsive reporter gene, including a luciferase-encoding gene or a gene encoding a fluorescent marker such as GFP or some other type of fluorescent protein (EGF etc.). In this manner, the MAPPIT assay provides a versatile assay to assess such recombinant protein-protein interactions, or compound- or hybrid ligand-induced protein-protein interactions, in intact cells.
Formation of the complex results in activation of a STAT-responsive luciferase reporter gene. That signal is set to 100% luciferase activity. In a separate sample set up, cells are prepared in the same manner but, in addition, co-incubated with a test compound whose interaction with CRBN is investigated. […] Increasing concentrations of test compound are assessed to determine CRBN binding efficiency as determined in this type of ligand competition experiment in living cells. Specificity of signal inhibition is assessed by a parallel experimental set up in which test compound effect is assessed for inhibition of signal generated by a control gp130 fusion protein (CTRL) that directly binds to the DHFR-fusion protein in the absence of hybrid ligand (i.e. a direct interaction of the proteins).
In more detail, HEK293T cells are cultured in Dulbecco's modified Eagle's medium supplemented with 10% fetal calf serum, incubated at 37° C., 8% CO2. […] Data points represent the average luciferase activity of triplicate samples derived from cells treated with leptin+test compound for the REM2 control (CTRL) or cells treated with leptin+hybrid ligand+test compound (CRBN) relative to leptin (CTRL) or leptin+hybrid ligand (CRBN) only treated samples (the signals obtained in absence of added test compound for both cases is set at 100% of luciferase activity on y-axis). Error bars represent standard deviations. Curves are fit using 4-parameter nonlinear regression in […] PRISM software

[1] = protocol and reagents of Example 1, read-out: IC50 Competition
[2] = HEK293T cells, 300 nM trimethoprim-lenalidomide hybrid ligand, luciferase 24 hours after compound treatment, read-out: Competition IC50

| IC50 [1] [µM] | IC50 [2] [µM] | SMILES |
| --- | --- | --- |
| 8.16 |  | COc1ccc(C2c3ccccc3C(=O)N2C2CCC(=O)NC2=O)cc1 (stereo not drawn) [Compound C11892, 3-[1-(4-methoxyphenyl)-3-oxo-isoindolin-2-yl]piperidine-2,6-dione] |
| 10 |  | O=C1CCC(N2Cc3ccc(NCC(=O)N4CCCCC4)cc3C2=O)C(=O)N1 (stereo not drawn) [Compound C12581] |
| 37400 |  | CC1CCN(C(=O)CNc2ccc3c(c2)C(=O)N(C2CCC(=O)NC2=O)C3)CC1 (stereo not drawn) [Compound C12582, 3-[6-[[2-(4-methyl-1-piperidyl)-2-oxo-ethyl]amino]-1-oxo-isoindolin-2-yl]piperidine-2,6-dione] |
| 0.0492 |  | CC1CCCN(C(=O)CNc2ccc3c(c2)C(=O)N(C2CCC(=O)NC2=O)C3)C1 (stereo not drawn) [Compound C12583, 3-[6-[[2-(3-methyl-1-piperidyl)-2-oxo-ethyl]amino]-1-oxo-isoindolin-2-yl]piperidine-2,6-dione] |
| 7.91e-05 |  | CC1CCCCN1C(=O)CNc1ccc2c(c1)C(=O)N(C1CCC(=O)NC1=O)C2 (stereo not drawn) [Compound C12584, 3-[6-[[2-(2-methyl-1-piperidyl)-2-oxo-ethyl]amino]-1-oxo-isoindolin-2-yl]piperidine-2,6-dione] |
| 0.383 |  | CC1CN(C(=O)CNc2ccc3c(c2)C(=O)N(C2CCC(=O)NC2=O)C3)CCO1 (stereo not drawn) [Compound C12586, 3-[6-[[2-(2-methylmorpholin-4-yl)-2-oxo-ethyl]amino]-1-oxo-isoindolin-2-yl]piperidine-2,6-dione] |
| 10.3 |  | O=C1CCC(N2Cc3ccc(NCC(=O)N4CC5CC4CO5)cc3C2=O)C(=O)N1 (stereo not drawn) [Compound C12589] |
| 0.208 |  | CC1CN(C)CCN1C(=O)CNc1ccc2c(c1)C(=O)N(C1CCC(=O)NC1=O)C2 (stereo not drawn) [Compound C12595, 3-[6-[[2-(2,4-dimethylpiperazin-1-yl)-2-oxo-ethyl]amino]-1-oxo-isoindolin-2-yl]piperidine-2,6-dione] |
| 5.5 |  | CN1CCN(C(=O)CNc2ccc3c(c2)C(=O)N(C2CCC(=O)NC2=O)C3)CC1=O (stereo not drawn) [Compound C12597, 3-[6-[[2-(4-methyl-3-oxo-piperazin-1-yl)-2-oxo-ethyl]amino]-1-oxo-isoindolin-2-yl]piperidine-2,6-dione] |
| 4.88 |  | CC1CN(C(=O)CNc2ccc3c(c2)C(=O)N(C2CCC(=O)NC2=O)C3)CC(=O)N1 (stereo not drawn) [Compound C12598, 3-[6-[[2-(3-methyl-5-oxo-piperazin-1-yl)-2-oxo-ethyl]amino]-1-oxo-isoindolin-2-yl]piperidine-2,6-dione] |
| 58 |  | CC1CC(NC(=O)CNc2ccc3c(c2)C(=O)N(C2CCC(=O)NC2=O)C3)CCO1 (stereo not drawn) [Compound C12695, 2-[[2-(2,6-dioxo-3-piperidyl)-3-oxo-isoindolin-5-yl]amino]-N-(2-methyltetrahydropyran-4-yl)acetamide] |
| 10.3 |  | O=C1Cc2ccccc2C(=O)N1 [Compound C15352, 4H-isoquinoline-1,3-dione] |
| 10.4 |  | O=C1c2ccccc2CC1n1ccc(=O)[nH]c1=O (stereo not drawn) [Compound C16899, 1-(1-oxoindan-2-yl)pyrimidine-2,4-dione] |
| 14500 |  | O=C1CCC(CN2C(=O)c3ccccc3C2=O)C(=O)N1 (stereo not drawn) [Compound C23258, 2-[(2,6-dioxo-3-piperidyl)methyl]isoindoline-1,3-dione] |
| 17.7 |  | O=C1CCC(N2C(=O)C3CCCCC3C2=O)C(=O)N1 (stereo not drawn) [Compound C24191, 2-(2,6-dioxo-3-piperidyl)-3a,4,5,6,7,7a-hexahydroisoindole-1,3-dione] |
| 0.654 |  | Cc1cccc2c1C(=O)N(C1CCC(=O)NC1=O)C2 (stereo not drawn) [Compound C28661, 3-(7-methyl-1-oxo-isoindolin-2-yl)piperidine-2,6-dione] |
| 0.304 |  | COc1cccc2c1C(=O)N(C1CCC(=O)NC1=O)C2 (stereo not drawn) [Compound C29137, 3-(7-methoxy-1-oxo-isoindolin-2-yl)piperidine-2,6-dione] |
| 4.92 |  | CC(=O)Nc1ccc2c(c1)C(=O)N(C1CCC(=O)NC1=O)C2 (stereo not drawn) [Compound C29408, N-[2-(2,6-dioxo-3-piperidyl)-3-oxo-isoindolin-5-yl]acetamide] |
| 10.4 |  | CC(=O)Nc1cccc2c1C(=O)N(C1CCC(=O)NC1=O)C2 (stereo not drawn) [Compound C29457, N-[2-(2,6-dioxo-3-piperidyl)-3-oxo-isoindolin-4-yl]acetamide] |
| 8.86 |  | NC(=O)Nc1cccc2c1CN(C1CCC(=O)NC1=O)C2=O (stereo not drawn) [Compound C29490, [2-(2,6-dioxo-3-piperidyl)-1-oxo-isoindolin-4-yl]urea] |
| 16.1 |  | O=C1c2c(F)c(F)c(F)c(F)c2C(=O)N1c1ccc(F)cc1F [Compound C34491, 2-(2,4-difluorophenyl)-4,5,6,7-tetrafluoro-isoindoline-1,3-dione] |

Second part, the compound before the results:

| SMILES | IC50 [1] [µM] | IC50 [2] [µM] |
| --- | --- | --- |
| O=C1N=c2ccc(NC(=O)NCc3ccccc3)cc2=N1 [1-benzyl-3-(2-oxobenzimidazol-5-yl)urea] | 23.8 |  |
| O=C(O)CNc1cccc2c1CN(C1CCC(=O)NC1=O)C2=O (stereo not drawn) [2-[[2-(2,6-dioxo-3-piperidyl)-1-oxo-isoindolin-4-yl]amino]acetic acid] | 13.8 |  |
| O=C1CCC(N2C(=O)c3ccccc3C2OCc2ccccc2)C(=O)N1 (stereo not drawn) [3-(1-benzyloxy-3-oxo-isoindolin-2-yl)piperidine-2,6-dione] | 58.3 |  |
| O=C1CCC(N2Cc3ccc(Nc4ncnc5ccccc45)cc3C2=O)C(=O)N1 (stereo not drawn) [C80382 acetic acid salt, acetic acid;3-[1-oxo-6-(quinazolin-4-ylamino)isoindolin-2-yl]piperidine-2,6-dione] | 0.0334 |  |
| C#CCOCCOCCOCCNc1nc(Nc2ccc3c(c2)CN(C2CCC(=O)NC2=O)C3=O)c2ccsc2n1 (stereo not drawn) [Compound 5.01] |  | 0.435 |
| CC(C)(C)OC(=O)NCCOCCOCCOCCn1cc(CNc2nc(Nc3ccc4c(c3)CN(C3CCC(=O)NC3=O)C4=O)c3ccsc3n2)nn1 (stereo not drawn) [Compound 5.02] |  | 0.376 |
| C#CCOCCOCCOCCNC(=O)COc1ccc2nc(C(=O)Nc3ccc4c(c3)C(=O)N(C3CCC(=O)NC3=O)C4)ccc2c1 (stereo not drawn) [Compound 5.03] |  | 0.873 |
| C#CCOCCOCCOCCOCC(=O)Nc1cc(Br)c2c(c1OC)C(=O)N(C1CCC(=O)NC1=O)C2 (stereo not drawn) [Compound 5.04] |  | 0.189 |
| C#CCOCCOCCOCCOCC(=O)Nc1ccc(-c2cccc3c2C(=O)N(C2CCC(=O)NC2=O)C3)cc1 (stereo not drawn) [Compound 5.05] |  | 0.194 |
| C#CCOCCOCCOCCNC(=O)c1ccc(CNC(=O)CNc2ccc3c(c2)C(=O)N(C2CCC(=O)NC2=O)C3)cc1 (stereo not drawn) [Compound 5.08] |  | 5.25 |
| CC/C(=C(\c1ccccc1)c1ccc(OCCN(C)CC(=O)NCCNC(=O)COc2cccc3c2CN(C2CCC(=O)NC2=O)C3=O)cc1)c1ccccc1 (stereo not drawn) [Compound 5.56] |  | 5.8 |
| Cc1sc2c(c1C)C(c1ccc(Cl)cc1)=N[C@@H](CC(=O)NCCOCCOCCOCCOCCNC(=O)COc1cccc3c1CN(C1CCC(=O)NC1=O)C3=O)c1nnc(C)n1-2 (stereo partly drawn) [Compound 5.57] |  | 0.109 |
| Cc1sc2c(c1C)C(c1ccc(Cl)cc1)=N[C@@H](CC(=O)NCCOCCOCCOCCNC(=O)COc1cccc3c1CN(C1CCC(=O)NC1=O)C3=O)c1nnc(C)n1-2 (stereo partly drawn) [Compound 5.58] |  | 0.0998 |
| Cc1sc2c(c1C)C(c1ccc(Cl)cc1)=N[C@@H](CC(=O)NCCOCCOCCNC(=O)COc1cccc3c1CN(C1CCC(=O)NC1=O)C3=O)c1nnc(C)n1-2 (stereo partly drawn) [Compound 5.59] |  | 0.068 |
| Cc1sc2c(c1C)C(c1ccc(Cl)cc1)=N[C@@H](CC(=O)NCCNC(=O)COc1cccc3c1CN(C1CCC(=O)NC1=O)C3=O)c1nnc(C)n1-2 (stereo partly drawn) [Compound 5.60] |  | 0.116 |
